Results published in ChEMBL document CHEMBL3886324, “Pyrimidinylpiperidinyloxypyridone analogues as GPR119 modulators” (2015).

Test: Tet-Inducible cAMP Assay: A human-mouse chimeric GPR119 expression construct encoding 3 copies of the FLAG epitope tag, the first 198 amino acids of human GPR119 and the C-terminal 137 amino acids of the mouse receptor was cloned into a tetracycline inducible vector pcDNA5/FRT/TO (Invitrogen #V6520-20), which includes a hygromycin-resistance marker. Tightly controlled receptor expression was achieved by stable integration of this construct into the genome of a specific host cell line, Flp-In-T-Rex-HEK293, expressing the tetracycline repressor (Invitrogen). Once a stable hygromycin-resistant cell line was generated, the cells were maintained at 37° C. in a humidified 5% CO2 atmosphere in culture medium consisting of Dulbecco's modified Eagle's medium (DMEM; Invitrogen #11960) supplemented with 2 mM L-glutamine, 10% fetal bovine serum, 200 μg/ml hygromycin B, and 15 μg/ml blasticidin.

For `Cc1nc(-n2cc(Cl)c(OC3CCN(c4ncc(Cl)cn4)CC3)cc2=O)ccc1N1CC[C@@H](O)C1=O`, which EC50 is on record?
The EC50 was 3 nM.

For `Cc1nc(-n2ccc(OC3CCN(c4ncc(Cl)cn4)CC3)cc2=O)ccc1N1CCC(O)C1=O` (stereo not drawn), which EC50 is on record?
Its EC50 is 10 nM.

For `Cc1nc(-n2cc(Cl)c(OC3CCN(c4ncc(Cl)cn4)CC3)cc2=O)ccc1N1CCC(O)C1=O` (stereo not drawn), which EC50 is on record?
The EC50 was 2 nM.
